Measurements published in PubChem BioAssay (NCI).
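Each compound was tested at five concentrations against cells in 96-well plates for 48 hours. TGI is the concentration that stops growth completely.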 Where a SMILES comes first, the peptide text is derived from it. The star is where a group is joined. Cbz = O=C(OCc1ccccc1)*

How the values were obtained:
Assay in all cases: NCI anticancer screen, dose series, 48 h
K-562 leukemia = system: K-562 leukemia
MCF7 breast = system: MCF7 breast
COLO 205 colon = system: COLO 205 colon
BT-549 breast = system: BT-549 breast
KM12 colon = system: KM12 colon
OVCAR-3 ovarian = system: OVCAR-3 ovarian
UACC-257 melanoma = system: UACC-257 melanoma
HCT-15 colon = system: HCT-15 colon
OVCAR-4 ovarian = system: OVCAR-4 ovarian
T-47D breast = system: T-47D breast
CCRF-CEM leukemia = system: CCRF-CEM leukemia
OVCAR-5 ovarian = system: OVCAR-5 ovarian
SF-268 CNS = system: SF-268 CNS
HOP-62 NSCLC = system: HOP-62 NSCLC
HS 578T breast = system: HS 578T breast
SW-620 colon = system: SW-620 colon

Row | Compound | TGI (K-562 leukemia) | TGI (MCF7 breast) | TGI (COLO 205 colon) | TGI (BT-549 breast) | TGI (KM12 colon) | TGI (OVCAR-3 ovarian) | TGI (UACC-257 melanoma) | TGI (HCT-15 colon) | TGI (OVCAR-4 ovarian) | TGI (T-47D breast) | TGI (CCRF-CEM leukemia) | TGI (OVCAR-5 ovarian) | TGI (SF-268 CNS) | TGI (HOP-62 NSCLC) | TGI (HS 578T breast) | TGI (SW-620 colon)
1 | S=C1C=C(c2ccccc2)Sc2ccccc2N1 | > 100 µM | > 100 µM | > 100 µM | > 100 µM | > 100 µM | > 100 µM | > 100 µM | > 100 µM | > 100 µM | > 100 µM | > 100 µM | > 100 µM | > 100 µM | > 100 µM | > 100 µM | –
2 | NC(CCCCNc1ccn(C2OC(CO)C(O)C2O)c(=O)n1)C(=O)O (centres undefined) | > 100 µM | > 100 µM | > 100 µM | > 100 µM | > 100 µM | > 100 µM | > 100 µM | > 100 µM | > 100 µM | > 100 µM | > 100 µM | > 100 µM | > 100 µM | – | > 100 µM | > 100 µM
3 | CC(=O)c1cn(-c2ccc(Cl)cc2)c(=O)c2c(N)n[nH]c12 | > 100 µM | – | > 100 µM | > 100 µM | > 100 µM | – | > 100 µM | > 100 µM | > 100 µM | > 100 µM | > 100 µM | – | > 100 µM | > 100 µM | > 100 µM | > 100 µM
4 | COC(=O)C1=C(O)C(C(=O)OC)[C@]2(O)[C@H](C(=O)OC)[C@H]1C[C@@H](c1ccc(OC)cc1)[C@H]2C(=O)OC (some centres undefined) | > 100 µM | > 100 µM | > 100 µM | > 100 µM | 41.3 µM | – | > 100 µM | > 100 µM | 78.2 µM | > 100 µM | – | 51.9 µM | > 100 µM | 85.1 µM | > 100 µM | > 100 µM
5 | COC/C=C\[C@@]1(O)CCCC[C@@H]1CC(OC)OC | > 100 µM | – | > 100 µM | > 100 µM | > 100 µM | > 100 µM | > 100 µM | > 100 µM | > 76.4 µM | > 100 µM | > 64.3 µM | > 100 µM | > 91.9 µM | > 100 µM | > 100 µM | > 100 µM
6 | CC1(C)CC(=O)c2c(nc3ccc4ccccc4c3c2-c2ccc(NC(=O)CCCCC(=O)Nc3ccc(-c4c5c(nc6ccc7ccccc7c46)CC(C)(C)CC5=O)cc3)cc2)C1 | > 100 µM | > 100 µM | > 100 µM | > 100 µM | > 100 µM | > 100 µM | > 100 µM | > 100 µM | – | > 100 µM | > 100 µM | > 100 µM | > 100 µM | > 100 µM | > 100 µM | > 100 µM
7 | C#CCOC(=O)c1ccccc1OC(C)=O | > 100 µM | > 100 µM | > 100 µM | > 100 µM | > 100 µM | – | > 100 µM | > 100 µM | > 100 µM | > 100 µM | > 100 µM | > 100 µM | > 100 µM | > 100 µM | > 100 µM | > 100 µM
8 | c1ccc(-c2cc(-c3cc(-c4ccccc4)n(-c4ccccc4)n3)nn2-c2ccccc2)cc1 | > 100 µM | > 100 µM | > 100 µM | > 100 µM | > 100 µM | > 100 µM | > 100 µM | > 100 µM | > 100 µM | > 100 µM | > 100 µM | > 100 µM | > 100 µM | > 100 µM | > 100 µM | –
9 | CCOC(=O)CCC(NC(=O)OCc1ccccc1)C(=O)NC(CCC(=O)OCC)C(=O)NC(CCC(=O)OCC)C(=O)NC(CCC(=O)OCC)C(=O)NC(CCC(=O)OCC)C(=O)OCC (centres undefined) | – | > 100 µM | > 100 µM | > 100 µM | > 100 µM | – | > 100 µM | > 100 µM | > 100 µM | > 100 µM | > 100 µM | > 100 µM | – | > 100 µM | > 100 µM | > 100 µM
10 | Cc1nc2c(-c3ccccc3)[nH]c(C)c2c(=O)o1 | > 100 µM | 37.7 µM | > 100 µM | > 100 µM | > 100 µM | – | > 100 µM | > 100 µM | > 100 µM | > 100 µM | > 100 µM | > 100 µM | > 100 µM | > 100 µM | > 100 µM | > 100 µM
11 | COc1ccc(C)cc1NC(=S)N/N=C/c1ccc(SC)cc1 | > 100 µM | > 100 µM | > 100 µM | > 100 µM | > 100 µM | > 100 µM | – | > 100 µM | > 100 µM | > 100 µM | > 100 µM | > 100 µM | > 100 µM | > 100 µM | > 100 µM | > 100 µM
12 | CCOC(=O)C(C)NC(=O)C(C)NC(=O)C(C)NC(=O)C(C)NC(=O)C(C)NC(=O)C(C)NC(=O)C(C)NC(=O)OCc1ccccc1 (centres undefined) (Cbz-AAAAAAA-OEt; configuration not given here) | > 100 µM | > 100 µM | > 100 µM | > 100 µM | > 100 µM | > 100 µM | – | > 100 µM | > 100 µM | > 100 µM | – | > 100 µM | > 100 µM | > 100 µM | > 100 µM | > 100 µM
13 | CC(C)(C)/C(O)=C\c1nc2cc(C(F)(F)F)ccc2[nH]c1=O | > 100 µM | – | > 100 µM | > 100 µM | > 100 µM | > 100 µM | > 100 µM | > 100 µM | > 100 µM | > 100 µM | 81.2 µM | > 100 µM | > 100 µM | > 100 µM | > 100 µM | > 100 µM
14 | CCOC(=O)c1nc2cc(C(F)(F)F)ccc2nc1Nc1ccc(Cl)c(Cl)c1 | – | > 100 µM | > 100 µM | > 100 µM | > 100 µM | > 100 µM | > 100 µM | > 100 µM | > 100 µM | > 100 µM | > 100 µM | > 100 µM | > 100 µM | > 100 µM | > 100 µM | > 100 µM
15 | COc1nc(=O)n(C2CC(N=[N+]=[N-])C(CO)O2)cc1C (centres undefined) | > 100 µM | > 100 µM | – | > 100 µM | > 100 µM | > 100 µM | > 100 µM | > 100 µM | > 100 µM | > 100 µM | > 100 µM | > 100 µM | > 100 µM | > 100 µM | > 100 µM | > 100 µM
